According to patent US8614215B2, “Quinoxaline inhibitors of phosphoinositide-3-kinases (PI3Ks)” (Merck Serono SA, priority 2007, dated 2013):

Tested on: Human recombinant GST-PI3K
Assay: PI3K induced-lipid phosphorylation, neomycin-SPA scintillation proximity assay
Type: biochemical
Conditions: Human recombinant GST-PI3K, SPA
From the text: The efficacy of compounds of the invention in inhibiting the PI3K induced-lipid phosphorylation may be tested in the following binding assay. The assay combines the scintillation proximity assay technology (SPA, Amersham) with the capacity of neomycin (a polycationic antibiotic) to bind phospholipids with high affinity and specificity. The Scintillation Proximity Assay is based on the properties of weakly emitting isotopes (such as ^3H, ^125I, ^33P). Coating SPA beads with neomycin allows the detection of phosphorylated lipid substrates after incubation with recombinant PI3K and radioactive ATP in the same well, by capturing the radioactive phospholipids to the SPA beads through their specific binding to neomycin.
To a 96 wells MTP containing 10 μL of the test compound of Formula (I) (solubilized in 10% DMSO; […]), the following assay components are added: 1) 10 μL of lipid micelles 2) 20 μL of Kinase buffer ([^33P]γATP162 μM/300 nCi, MgCl2 2.5 mM, DTT 2.5 mM, Na3VO4 25 uM in Hepes 40 mM, pH 7.4) and 3) 10 μL (100 ng) of Human recombinant GST-PI3K (in Hepes 40 mM, pH 7.4, ethylenglycol 4%). After incubation at room temperature for 120 minutes, with gentle agitation, the reaction is stopped by addition of 200 μL of a solution containing 250 μg of neomycin-coated PVT SPA beads, ATP 60 mM and EDTA 6.2 mM in PBS. The assay is further incubated at room temperature for 60 minutes with gentle agitation to allow binding of phospholipids to neomycin-SPA beads. After precipitation of the neomycin-coated PVT SPA beads for 5 minutes at 1500×g, radioactive PtdIns(3)P is quantified by scintillation counting in a Wallac MicroBeta™ plate counter.
The values indicated in Table I below refer to the IC50 (μM) with respect to PI3K, i.e. the amount necessary to achieve 50% inhibition of said target. Said values show a considerable inhibitory potency of quinoxaline compounds with regard to PI3K.

Row | SMILES | IC50
1 | COc1ccc(CC(O)CO)c(Nc2nc3ccccc3nc2NS(=O)(=O)c2cn(C)cn2)c1 [Example 77, N-[3-({2-[(2R,2S)-2,3-Dihydroxypropyl]-5-methoxyphenyl}amino)quinoxalin-2-yl]-1-methyl-1H-imidazole-4-sulfonamide] | 120 nM
2 | COCCc1ccc(OC)cc1Nc1nc2ccccc2nc1NS(=O)(=O)c1cn(C)c(CS(C)(=O)=O)n1 [Example 79, N-(3-{[5-Methoxy-2-(2-methoxyethyl)phenyl]amino}quinoxalin-2-yl)-1-methyl-2-[(methylsulfonyl)methyl]-1H-imidazole-4-sulfonamide] | 200 nM
3 | COCCNC(=O)c1cc(Nc2nc3ccccc3nc2NS(=O)(=O)c2cn(C)cn2)cc(OC)c1 [Example 80, 3-Methoxy-N-(2-methoxyethyl)-5-[(3-{[(1-methyl-1H-imidazol-4-yl)sulfonyl]amino}quinoxalin-2-yl)amino]benzamide] | 400 nM
4 | COc1ccc(CN2CCN(C)CC2)c(Nc2nc3ccccc3nc2NS(=O)(=O)c2ccc(F)cc2)c1 [Example 82, 4-fluoro-N-[3-({5-methoxy-2-[(4-methylpiperazin-1-yl)methyl]phenyl}amino)quinoxalin-2-yl]benzenesulfonamide] | 110 nM
5 | COc1ccc(CC2CCCCC2)c(Nc2nc3ccccc3nc2NS(=O)(=O)c2ccc(CN(C)C)cc2)c1 [Example 87, N-(3-{[2-(cyclohexylmethyl)-5-methoxyphenyl]amino}quinoxalin-2-yl)-4-[(dimethylamino)methyl]benzenesulfonamide] | 760 nM
6 | COc1ccc(CO)c(Nc2nc3ccccc3nc2NS(=O)(=O)c2cn(C)cn2)c1 [Example 91, N-(3-{[2-(hydroxymethyl)-5-methoxyphenyl]amino}quinoxalin-2-yl)-1-methyl-1H-imidazole-4-sulfonamide] | 470 nM
7 | COc1cc(CN2CCN(C)CC2)cc(Nc2nc3ccccc3nc2NS(=O)(=O)c2cccnc2)c1 [Example 92, N-[3-({3-methoxy-5-[(4-methylpiperazin-1-yl)methyl]phenyl}amino)quinoxalin-2-yl]pyridine-3-sulfonamide] | 970 nM
8 | COc1cc(CN(C)C)cc(Nc2nc3ccccc3nc2NS(=O)(=O)c2cn(C)cn2)c1 [Example 95, N-[3-({3-[(Dimethylamino)methyl]-5-methoxyphenyl}amino)quinoxalin-2-yl]-1-methyl-1H-imidazole-4-sulfonamide] | 1100 nM
9 | COc1ccc(CC2CCN(S(C)(=O)=O)CC2)c(Nc2nc3ccccc3nc2NS(=O)(=O)c2cn(C)cn2)c1 [Example 97, N-{3-[(5-methoxy-2-{[1-(methylsulfonyl)piperidin-4-yl]methyl}phenyl)amino]quinoxalin-2-yl}-1-methyl-1H-imidazole-4-sulfonamide] | 160 nM
10 | COc1ccc(C(=O)O)c(Nc2nc3ccccc3nc2NS(=O)(=O)c2cccnc2)c1 [Example 98, 4-methoxy-2-({3-[(pyridin-3-ylsulfonyl)amino]quinoxalin-2-yl}amino)benzoic acid] | 4680 nM
11 | COCCc1ccc(OC)cc1Nc1nc2ccccc2nc1NS(=O)(=O)C1CCN(C(C)=O)CC1 [Example 101, 1-Acetyl-N-(3-{[5-methoxy-2-(2-methoxyethyl)phenyl]amino}quinoxalin-2-yl)piperidine-4-sulfonamide] | 300 nM
12 | COc1ccc(CCOC(=O)[C@@H](NC(=O)OCC2c3ccccc3-c3ccccc32)C(C)C)c(Nc2nc3ccccc3nc2NS(=O)(=O)c2cn(C)cn2)c1 [Example 103, 2-{4-Methoxy-2-[(3-{[(1-methyl-1H-imidazol-4-yl)sulfonyl]amino}quinoxalin-2-yl)amino]phenyl}ethyl N-[(9H-fluoren-9-ylmethoxy)carbonyl]-L-valinate] | 1840 nM
13 | COc1ccc(CCOC(=O)[C@@H](N)C(C)C)c(Nc2nc3ccccc3nc2NS(=O)(=O)c2cn(C)cn2)c1 [Example 104] | 100 nM

The remaining lines, values ahead:

Row | IC50 | SMILES
14 | 87 nM | COc1ccc(CCCO)c(Nc2nc3ccccc3nc2NS(=O)(=O)c2cn(C)c(CS(C)(=O)=O)n2)c1 [Example 76, N-(3-{[2-(3-Hydroxypropyl)-5-methoxyphenyl]amino}quinoxalin-2-yl)-1-methyl-2-[(methylsulfonyl)methyl]-1H-imidazole-4-sulfonamide]
15 | 30 nM | COc1ccc(CCCO)c(Nc2nc3ccccc3nc2NS(=O)(=O)c2cccc(NC(=O)CN(C)C)c2)c1 [Example 78, 2-Dimethylamino-N-(3-{[(3-{[2-(3-hydroxypropyl)-5-methoxyphenyl]amino}quinoxalin-2-yl)]sulfamoyl}phenyl)-acetamide]
16 | 72 nM | COc1ccc(CN2CCOCC2)c(Nc2nc3ccccc3nc2NS(=O)(=O)c2cccnc2)c1 [Example 83, N-(3-{[5-methoxy-2-(morpholin-4-ylmethyl)phenyl]amino}quinoxalin-2-yl)pyridine-3-sulfonamide]
17 | 26 nM | COc1ccc(CC2CCC(O)CC2)c(Nc2nc3ccccc3nc2NS(=O)(=O)c2ccc(CN(C)C)cc2)c1 (stereo not drawn) [Example 84, 4-[(dimethylamino)methyl]-N-[3-({2-[(4-hydroxycyclohexyl)methyl]-5-methoxyphenyl}amino)quinoxalin-2-yl]benzenesulfonamide]
18 | 10 nM | COc1ccc(CC2CCS(=O)(=O)CC2)c(Nc2nc3ccccc3nc2NS(=O)(=O)c2ccc(CN(C)C)cc2)c1 [Example 85, 4-[(dimethylamino)methyl]-N-[3-({2-[(1,1-dioxidotetrahydro-2H-thiopyran-4-yl)methyl]-5-methoxyphenyl}amino)quinoxalin-2-yl]benzenesulfonamide]
19 | 35 nM | COc1ccc(CC2CCSCC2)c(Nc2nc3ccccc3nc2NS(=O)(=O)c2ccc(CN(C)C)cc2)c1 [Example 88, 4-[(dimethylamino)methyl]-N-(3-{[5-methoxy-2-(tetrahydro-2H-thiopyran-4-ylmethyl)phenyl]amino}quinoxalin-2-yl)benzenesulfonamide]
20 | 26 nM | COc1ccc(CCO)c(Nc2nc3ccccc3nc2NS(=O)(=O)c2ccc(CN(C)C)cc2)c1 [Example 89, 4-[(Dimethylamino)methyl]-N-(3-{[2-(2-hydroxyethyl)-5-methoxyphenyl]amino}quinoxalin-2-yl)benzenesulfonamide]
21 | 43 nM | COc1ccc(CCO)c(Nc2nc3ccccc3nc2NS(=O)(=O)c2ccc(CN3CCC(F)CC3)cc2)c1 [Example 90]
22 | 36 nM | COc1ccc(CCO)c(Nc2nc3ccccc3nc2NS(=O)(=O)c2ccc(CCCO)cc2)c1 [Example 93, N-(3-{[2-(2Hydroxyethyl)-5-methoxyphenyl]amino}quinoxalin-2-yl)-4-(3-hydroxypropyl)benzenesulfonamide]
23 | 34 nM | COc1ccc(CCO)c(Nc2nc3ccccc3nc2NS(=O)(=O)c2ccc(OCCO)cc2)c1 [Example 94]
24 | 100 nM | COc1ccc(CC2CCN(C(=O)CN(C)C)CC2)c(Nc2nc3ccccc3nc2NS(=O)(=O)c2cn(C)cn2)c1 [Example 96, N-{3-[(2-{[1-(N,N-dimethylglycyl)piperidin-4-yl]methyl}-5-methoxyphenyl)amino]quinoxalin-2-yl}-1-methyl-1H-imidazole-4-sulfonamide]
25 | 26 nM | COc1ccc(CCCO)c(Nc2nc3ccccc3nc2NS(=O)(=O)C2CCNCC2)c1 [Example 99, N-(3-{[2-(3-Hydroxypropyl)-5-methoxyphenyl]amino}quinoxalin-2-yl)piperidine-4-sulfonamide]
26 | 98 nM | COCCc1ccc(OC)cc1Nc1nc2ccccc2nc1NS(=O)(=O)C1CCNCC1 [Example 100, N-(3-{[5-Methoxy-2-(2-methoxyethyl)phenyl]amino}quinoxalin-2-yl)piperidine-4-sulfonamide]
27 | 12 nM | COc1ccc(CCCO)c(Nc2nc3ccccc3nc2NS(=O)(=O)c2cccc(NC(=O)CO)c2)c1 [Example 102, 2-Hydroxy-N-(3-{[(3-{[2-(3-hydroxypropyl)-5-methoxyphenyl]amino}quinoxalin-2-yl)amino]sulfonyl}phenyl)acetamide]
